In paper PMC9823097, “Dysregulation of PRMT5 in chronic lymphocytic leukemia promotes progression with high risk of Richter’s transformation” (Nature Communications, 2023):

Key:
Mec-1 cells = assay: Cell growth curves over 12 days, Mec-1; type: cell-based; settings: for anti-proliferative potency compared to PRT382: Mec-1
Description: (§1) Live cells/mL were counted on days 3, 6, 10, and 12. […] The split factor was calculated at indicated time points by dividing the counted cells/mL by 3E5. Cell growth was extrapolated over time by multiplying the subsequent cell count by the previous split factor. Cell growth is plotted as fold change relative to DMSO-treated cells.

HG3 cells = assay: Cell growth curves over 12 days, HG3; type: cell-based; settings: for anti-proliferative potency compared to PRT382: HG3
Description: as §1

Nc1nc2cc(CC[C@H]3C[C@@H](n4ccc5c(N)ncnc54)[C@H](O)[C@@H]3O)ccc2cc1Br [JNJ-64619178]
Rep 1 Live Cells [Fold Change] (Mec-1 cells; Mec-1, 1 nM, day 0): 1 Fold Change
Rep 2 Live Cells [Fold Change] (Mec-1 cells; Mec-1, 1 nM, day 0): 1 Fold Change
Rep 1 Live Cells [Fold Change] (Mec-1 cells; Mec-1, 1 nM, day 3): 6.73 Fold Change
Rep 2 Live Cells [Fold Change] (Mec-1 cells; Mec-1, 1 nM, day 3): 5.77 Fold Change
Rep 1 Live Cells [Fold Change] (Mec-1 cells; Mec-1, 1 nM, day 6): 33.4 Fold Change
Rep 2 Live Cells [Fold Change] (Mec-1 cells; Mec-1, 1 nM, day 6): 34.4 Fold Change
Rep 1 Live Cells [Fold Change] (Mec-1 cells; Mec-1, 1 nM, day 10): 194 Fold Change
Rep 2 Live Cells [Fold Change] (Mec-1 cells; Mec-1, 1 nM, day 10): 282 Fold Change
Rep 1 Live Cells [Fold Change] (Mec-1 cells; Mec-1, 1 nM, day 12): 737 Fold Change
Rep 2 Live Cells [Fold Change] (Mec-1 cells; Mec-1, 1 nM, day 12): 940 Fold Change
Rep 1 Live Cells [Fold Change] (Mec-1 cells; Mec-1, 10 nM, day 0): 1 Fold Change
Rep 2 Live Cells [Fold Change] (Mec-1 cells; Mec-1, 10 nM, day 0): 1 Fold Change
Rep 1 Live Cells [Fold Change] (Mec-1 cells; Mec-1, 10 nM, day 3): 4.7 Fold Change
Rep 2 Live Cells [Fold Change] (Mec-1 cells; Mec-1, 10 nM, day 3): 4.73 Fold Change
Rep 1 Live Cells [Fold Change] (Mec-1 cells; Mec-1, 10 nM, day 6): 4.72 Fold Change
Rep 2 Live Cells [Fold Change] (Mec-1 cells; Mec-1, 10 nM, day 6): 5.92 Fold Change
Rep 1 Live Cells [Fold Change] (Mec-1 cells; Mec-1, 10 nM, day 10): 4.93 Fold Change
Rep 2 Live Cells [Fold Change] (Mec-1 cells; Mec-1, 10 nM, day 10): 4.62 Fold Change
Rep 1 Live Cells [Fold Change] (Mec-1 cells; Mec-1, 10 nM, day 12): 3.86 Fold Change
Rep 2 Live Cells [Fold Change] (Mec-1 cells; Mec-1, 10 nM, day 12): 2.38 Fold Change
Rep 1 Live Cells [Fold Change] (Mec-1 cells; Mec-1, 100 nM, day 0): 1 Fold Change
Rep 2 Live Cells [Fold Change] (Mec-1 cells; Mec-1, 100 nM, day 0): 1 Fold Change
Rep 1 Live Cells [Fold Change] (Mec-1 cells; Mec-1, 100 nM, day 3): 4.17 Fold Change
Rep 2 Live Cells [Fold Change] (Mec-1 cells; Mec-1, 100 nM, day 3): 4.67 Fold Change
Rep 1 Live Cells [Fold Change] (Mec-1 cells; Mec-1, 100 nM, day 6): 3.53 Fold Change
Rep 2 Live Cells [Fold Change] (Mec-1 cells; Mec-1, 100 nM, day 6): 4.53 Fold Change
Rep 1 Live Cells [Fold Change] (Mec-1 cells; Mec-1, 100 nM, day 10): 2.56 Fold Change
Rep 2 Live Cells [Fold Change] (Mec-1 cells; Mec-1, 100 nM, day 10): 2.9 Fold Change
Rep 1 Live Cells [Fold Change] (Mec-1 cells; Mec-1, 100 nM, day 12): 1.15 Fold Change
Rep 2 Live Cells [Fold Change] (Mec-1 cells; Mec-1, 100 nM, day 12): 1.27 Fold Change
Rep 1 Live Cells [Fold Change] (Mec-1 cells; Mec-1, 1 µM, day 0): 1 Fold Change
Rep 2 Live Cells [Fold Change] (Mec-1 cells; Mec-1, 1 µM, day 0): 1 Fold Change
Rep 1 Live Cells [Fold Change] (Mec-1 cells; Mec-1, 1 µM, day 3): 1.48 Fold Change
Rep 2 Live Cells [Fold Change] (Mec-1 cells; Mec-1, 1 µM, day 3): 1.38 Fold Change
Rep 1 Live Cells [Fold Change] (Mec-1 cells; Mec-1, 1 µM, day 6): 0.841 Fold Change
Rep 2 Live Cells [Fold Change] (Mec-1 cells; Mec-1, 1 µM, day 6): 2.27 Fold Change
Rep 1 Live Cells [Fold Change] (Mec-1 cells; Mec-1, 1 µM, day 10): 1.28 Fold Change
Rep 2 Live Cells [Fold Change] (Mec-1 cells; Mec-1, 1 µM, day 10): 1.57 Fold Change
Rep 1 Live Cells [Fold Change] (Mec-1 cells; Mec-1, 1 µM, day 12): 0.808 Fold Change
Rep 2 Live Cells [Fold Change] (Mec-1 cells; Mec-1, 1 µM, day 12): 0.765 Fold Change
anti-proliferative potency compared to PRT382 (Mec-1 cells; high doses (1µM)): similar
anti-proliferative potency compared to PRT382 (Mec-1 cells; lower doses (10nM, 100nM)): more potent
Rep 1 Live Cells [Fold Change] (HG3 cells; HG3, 1 nM, day 0): 1 Fold Change
Rep 2 Live Cells [Fold Change] (HG3 cells; HG3, 1 nM, day 0): 1 Fold Change
Rep 1 Live Cells [Fold Change] (HG3 cells; HG3, 1 nM, day 3): 6.233 Fold Change
Rep 2 Live Cells [Fold Change] (HG3 cells; HG3, 1 nM, day 3): 6.733 Fold Change
Rep 1 Live Cells [Fold Change] (HG3 cells; HG3, 1 nM, day 6): 33.0367 Fold Change
Rep 2 Live Cells [Fold Change] (HG3 cells; HG3, 1 nM, day 6): 39.5022 Fold Change
Rep 1 Live Cells [Fold Change] (HG3 cells; HG3, 1 nM, day 10): 290.723 Fold Change
Rep 2 Live Cells [Fold Change] (HG3 cells; HG3, 1 nM, day 10): 314.043 Fold Change
Rep 1 Live Cells [Fold Change] (HG3 cells; HG3, 1 nM, day 12): 802.395 Fold Change
Rep 2 Live Cells [Fold Change] (HG3 cells; HG3, 1 nM, day 12): 1088.68 Fold Change
Rep 1 Live Cells [Fold Change] (HG3 cells; HG3, 10 nM, day 0): 1 Fold Change
Rep 2 Live Cells [Fold Change] (HG3 cells; HG3, 10 nM, day 0): 1 Fold Change
Rep 1 Live Cells [Fold Change] (HG3 cells; HG3, 10 nM, day 3): 4.733 Fold Change
Rep 2 Live Cells [Fold Change] (HG3 cells; HG3, 10 nM, day 3): 5.9 Fold Change
Rep 1 Live Cells [Fold Change] (HG3 cells; HG3, 10 nM, day 6): 4.86 Fold Change
Rep 2 Live Cells [Fold Change] (HG3 cells; HG3, 10 nM, day 6): 7.375 Fold Change
Rep 1 Live Cells [Fold Change] (HG3 cells; HG3, 10 nM, day 10): 4.276 Fold Change
Rep 2 Live Cells [Fold Change] (HG3 cells; HG3, 10 nM, day 10): 8.039 Fold Change
Rep 1 Live Cells [Fold Change] (HG3 cells; HG3, 10 nM, day 12): 4.945 Fold Change
Rep 2 Live Cells [Fold Change] (HG3 cells; HG3, 10 nM, day 12): 8.633 Fold Change
Rep 1 Live Cells [Fold Change] (HG3 cells; HG3, 100 nM, day 0): 1 Fold Change
Rep 2 Live Cells [Fold Change] (HG3 cells; HG3, 100 nM, day 0): 1 Fold Change
Rep 1 Live Cells [Fold Change] (HG3 cells; HG3, 100 nM, day 3): 4.133 Fold Change
Rep 2 Live Cells [Fold Change] (HG3 cells; HG3, 100 nM, day 3): 5.6 Fold Change
Rep 1 Live Cells [Fold Change] (HG3 cells; HG3, 100 nM, day 6): 4.064 Fold Change
Rep 2 Live Cells [Fold Change] (HG3 cells; HG3, 100 nM, day 6): 5.619 Fold Change
Rep 1 Live Cells [Fold Change] (HG3 cells; HG3, 100 nM, day 10): 2.5 Fold Change
Rep 2 Live Cells [Fold Change] (HG3 cells; HG3, 100 nM, day 10): 4.6354 Fold Change
Rep 1 Live Cells [Fold Change] (HG3 cells; HG3, 100 nM, day 12): 1.958 Fold Change
Rep 2 Live Cells [Fold Change] (HG3 cells; HG3, 100 nM, day 12): 5.387 Fold Change
Rep 1 Live Cells [Fold Change] (HG3 cells; HG3, 1 µM, day 0): 1 Fold Change
Rep 2 Live Cells [Fold Change] (HG3 cells; HG3, 1 µM, day 0): 1 Fold Change
Rep 1 Live Cells [Fold Change] (HG3 cells; HG3, 1 µM, day 3): 1.6 Fold Change
Rep 2 Live Cells [Fold Change] (HG3 cells; HG3, 1 µM, day 3): 2.303 Fold Change
Rep 1 Live Cells [Fold Change] (HG3 cells; HG3, 1 µM, day 6): 1.024 Fold Change
Rep 2 Live Cells [Fold Change] (HG3 cells; HG3, 1 µM, day 6): 1.536 Fold Change
Rep 1 Live Cells [Fold Change] (HG3 cells; HG3, 1 µM, day 10): 3.369 Fold Change
Rep 2 Live Cells [Fold Change] (HG3 cells; HG3, 1 µM, day 10): 0.4381 Fold Change
Rep 1 Live Cells [Fold Change] (HG3 cells; HG3, 1 µM, day 12): 2.347 Fold Change
Rep 2 Live Cells [Fold Change] (HG3 cells; HG3, 1 µM, day 12): 3.411 Fold Change
anti-proliferative potency compared to PRT382 (HG3 cells; high doses (1µM)): similar
anti-proliferative potency compared to PRT382 (HG3 cells; lower doses (10nM, 100nM)): more potent
